Laboratory results reported in patent US20140106380A1, “METHODS FOR IDENTIFYING INHIBITORS OF ABETA42 OLIGOMERS” (Merck Sharp & Dohme Crop., priority 2010, published 2014).

Legend:
Type in all cases: biochemical
Aβ42 [1] = target: T1, Aβ42 (Homo sapiens, UniProt P05067); test: Aβ42 CT AlphaLISA, inhibition of early oligomerization; conditions: for Aβ42 CT immunoreactivity: Aβ42 1 nM, oligomerization at 4° C. overnight, different buffers, AlphaLISA
T1 construct: Synthetic human Aβ1-42, purchased from American Peptide Company (Sunnyvale, Calif.); purchased American Peptide Company (Sunnyvale, Calif.); host or cells: chemically synthesised peptide
Procedure: To test a compound's effect on inhibition of early oligomerization, SI, or a different testing compound, was mixed with the Aβ42 solution to make solutions with final concentrations of SI from 0.1 μM to 10 mM (0.1 μM, 1 μM, 10 μM, 100 μM, 1 mM, and 10 mM) and Aβ42 from 1 nM to 10 μM (1 nM, 10 nM, 100 nM, 1 μM and 10 μM). For example, a 10 μM Aβ42 solution contained, respectively, 0 μM, 0.1 μM, 1 μM, 10 μM, 100 μM, 1 mM and 10 mM SI. The same SI concentration series was applied to other concentrations of the Aβ42 solution indicated above. The mixtures were either incubated at 4° C. overnight or room temperature for two to three hours, before being used in the immunoreactive assay. Similarly, the presence of Aβ42 oligomers was detected using an Aβ42 C-terminal (CT) AlphaLISA assay (Eglen et al., 2008, Curr. Chem. Genomics, 1:2-10), a bead based proximity assay, based upon an oxygen channeling technology. The assay was carried out in a 384 well plate using an AlphaLISA® Human Amyloid β 1-[…]42 Research Immunoassay Kit (PerkinElmer, Waltham, Mass.) according to the manufacturer's directions. To make a 2.5× AlphaLISA acceptor bead and biotinylated anti-Aβ42 antibody mixture, 5.5 μl acceptor beads conjugated to anti-Aβ42 (12F4) and 5.5 μl biotin-Aβ42 antibody (binds to a epitope away from the CT of Aβ42) were added to 1,089 μl 1S AlphaLISA buffer and mixed by brief vortexing. To each well of a 384-well plate, 8 μl of the mix and 2 μl of an Aβ42 sample were added, followed by gentle tapping of the plate to mix the solutions. The plate was incubated at room temperature for one hour. The streptavidin donor bead solution was made in a dark room under safety light by mixing 20.1 μl of streptavidin donor beads with 1,279 μl 1× AlphaLISA buffer. The streptavidin donor bead solution, which binds to the biotinylated anti-Aβ42 antibody, was then added (10 μl/well) to the plate, sealed with an adhesive aluminum membrane, and incubated at room temperature for 30 minutes. Incubation brought the donor and acceptor beads into close proximity. An immunoreactive signal was generated when the donor bead released a singlet oxygen that, when excited at 680nm, was transferred to the acceptor bead, resulting in a light emission at 610 nm. The immunoreactive signals were read with a multilabel plate reader (EnVision®, PerkinElmer, Waltham, Mass.). The presence of Aβ42 oligomers was determined by a corresponding decrease in the C-terminal immunosignal. Values for the AlphaLISA assays were graphed and analyzed with Prism GraphPad software. Similar to signals generated with ELISA, the extent of Aβ42 oligomerization is inversely correlated with the magnitude of the CT immunosignal in AlphaLISA. Values for the ELISA assays were graphed and analyzed with Prism GraphPad software.

Aβ42 oligomers [2] = target: T2, Aβ42 oligomers (Homo sapiens, UniProt P05067); test: Aβ42 CT immunoassay, metastability of pre-formed Aβ42 oligomers; conditions: addition to pre-formed Aβ42 oligomers, P<0.01 relative to samples without SI
T2 construct: Synthetic human Aβ1-42, purchased from American Peptide Company (Sunnyvale, Calif.); purchased American Peptide Company (Sunnyvale, Calif.); host or cells: chemically synthesised peptide
Procedure: The effect of an Aβ oligomer inhibitor on the metastability of Aβ42 oligomers prepared according Example 1 was evaluated as follows. […] Similarly, the presence of Aβ42 oligomers was detected using an Aβ42 C-terminal (CT) AlphaLISA assay (Eglen et al., 2008, Curr. Chem. Genomics, 1:2-10), a bead based proximity assay, based upon an oxygen channeling technology. […] The immunoreactive signals were read with a multilabel plate reader (EnVision®, PerkinElmer, Waltham, Mass.). The presence of Aβ42 oligomers was determined by a corresponding decrease in the C-terminal immunosignal. Values for the AlphaLISA assays were graphed and analyzed with Prism GraphPad software. […] Values for the ELISA assays were graphed and analyzed with Prism GraphPad software.

Aβ42 oligomers [3] = target: T2, Aβ42 oligomers; test: Aβ42 NT immunoassay (6E10-6E10); conditions: P<0.01
Procedure: The effect of an Aβ oligomer inhibitor on the metastability of Aβ42 oligomers prepared according Example 1 was evaluated as follows. A sample of the 1 mM Aβ42 DMSO stock was diluted to 10 μM or 100 μM in PBS or Neurobasal (e.g., 10 μl of 1 mM Aβ42 DMSO stock to make 1 ml 10 μM solution or 100 μl A(342 DMSO stock to make 1 ml 100 μM solution). After incubation at 37° C., the diluted oligomer solutions were mixed with scyllo-inositol (SI), a naturally occurring plant sugar alcohol found most abundantly in the coconut palm, to make a final concentrations of 1 μM or 10 μM Aβ42 containing 10 mM SI. The non-compound control oligomer sample contained no SI. The mixtures were incubated on ice for two to three hours to allow establishment of new equilibrium (metastability) among Aβ42 species. The stabilized mixtures were then utilized in the immunoreactive assays. An Aβ42 N-terminal (NT) oligomer ELISA was performed by adopting a 6E10-6E10 ELISA originally developed in house at Merck and also reported by others (Gandy et al., 2010, Ann. Neurol. 68: 220-230; Xia et al., 2009, Arch. Neurol. 66:190-199). […] The immunoreactive signals were read with a multilabel plate reader (EnVision®, PerkinElmer, Waltham, Mass.). The presence of Aβ42 oligomers was determined by a corresponding increase in the NT immunosignal. Values for the ELISA assays were graphed and analyzed with Prism GraphPad software. […]

Aβ42 [4] = target: T1, Aβ42; test: Dynamic light scattering of Aβ42 oligomerization; conditions: Aβ42 40 μM, 25 °C, in the presence of SI
Procedure: Dynamic light scattering (DLS), also known as also known as quasi-elastic laser light scattering, offered another methodology to determine Aβ42 oligomerization by measuring the size distribution profile and shape of particles in solution. […] Sample preparation for the DLS assay was performed in a bio-safety cabinet. All solutions and reagents were pre-filtered with a 0.1 μm Whatman filter (Whatman, Piscataway, N.J.). Aβ42 (100 μM) made in PBS from the 1 mM DMSO stock (Example 1) was filtered with a 0.2 μm filter (Whatman, Piscataway, N.J.) and diluted to 50 μM to 10 μM with PBS or water. The samples were added to the DLS plate (50 μl/well) in the presence or absence of compounds and incubated at room temperature for seven to eight hours. The plate was briefly centrifuged (1 minute at 3000 rpm) and placed in the DynaPro DLS plate reader (Wyatt Technology, Dernbach, Germany), in which different parameters (normalized intensity, hydrodynamic radius, molecular weight, relative molecular mass, percent polydispersity, and sum of square) of the Aβ42 oligomer samples were measured, and analyzed with Dynamics 7.0.0 software (Wyatt Technology, Dernbach, Germany).

T1 sequence (P05067 672-713 limits assumed): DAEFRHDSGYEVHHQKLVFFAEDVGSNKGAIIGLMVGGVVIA
T2 sequence (P05067 672-713 limits assumed): as above

With O[C@H]1[C@H](O)[C@@H](O)[C@H](O)[C@@H](O)[C@@H]1O [SI, scyllo-inositol] the “Aβ42 CT immunoreactivity” value (Aβ42 [1]) was “dose dependent increase”, the CT immunoreactivity (Aβ42 oligomers [2]) was “statistically significant increase” and the NT immunoreactivity (Aβ42 oligomers [3]; addition to pre-formed Aβ42 oligomers) was “significant decrease”. For the same compound, the “% Intensity, Peak 1” value (Aβ42 [4]) was 0.7%, the “% Intensity, Peak 2” value (Aβ42 [4]) was 96.88% and the “% Mass, Peak 1” value (Aβ42 [4]) was 76%. The “% Mass, Peak 2” value (Aβ42 [4]) was 38%, the “MW-R, Peak 1” value (Aβ42 [4]) was 11.6 kDa and the “MW-R, Peak 2” value (Aβ42 [4]) was 527.1 kDa. The “Radius, Peak 1” value (Aβ42 [4]) was 2.5 nm, the “Radius, Peak 2” value (Aβ42 [4]) was “remained unchanged” and the “% Mass, Peak 1” value (Aβ42 [4]; listed as Ab42/SI) was 72.93%. The “% Mass, Peak 2” value (Aβ42 [4]; listed as Ab42/SI) was 38.75% and the “Radius, Peak 2” value (Aβ42 [4]; listed as Ab42/SI) was 21.4 nm.

For OC1C(O)C(O)C(O)C(O)C1O (stereo not drawn) [chiro-inositol], the “Aβ42 CT immunoreactivity” value (Aβ42 [1]) was “no effect”.

In the case of O[C@H]1[C@H](O)[C@@H](O)[C@H](O)[C@@H](O)[C@H]1O [myo-inositol], the “Aβ42 CT immunoreactivity” value (Aβ42 [1]) is reported as “no effect”.

For “Ac-Leu-Pro(N-CH3)Phe-Phe-Asp-NH2 [Peptide IV]”, the CT immunoreactivity (Aβ42 [1]; FIG. 7A) was “dose-depended increase” and the NT immunosignal (Aβ42 oligomers [3]; FIG. 7B) was “significant decrease”.
